pIC50: −log10 of the molar value. Counter-ions that a name gives are not always drawn. Like-named read-outs stand apart in the source and are kept apart here. Where a SMILES comes first, the peptide text is derived from it. [ ]: non-standard residue; d: D form. The star is where a group is joined. Tos = Cc1ccc(S(=O)(=O)*)cc1; PhAc = O=C(Cc1ccccc1)*
Assays:
Format in all cases: biochemical
trypsin = target: T1, trypsin (Bos taurus, UniProt P00760); experiment: Assay for inhibitory activity against trypsin (synthetic substrate PS-915); settings: for pIC50: PS-915, pH 8.0, 37° C.
T1 construct: purchased Worsingstone Co. (so in the source)
T1 sequence (P00760 24-246): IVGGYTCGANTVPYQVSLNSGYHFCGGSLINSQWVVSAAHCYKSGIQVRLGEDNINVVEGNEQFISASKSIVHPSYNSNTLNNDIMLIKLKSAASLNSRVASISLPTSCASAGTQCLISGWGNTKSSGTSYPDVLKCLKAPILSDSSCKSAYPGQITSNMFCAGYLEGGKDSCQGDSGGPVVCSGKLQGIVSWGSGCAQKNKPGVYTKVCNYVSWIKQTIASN
From the text: (§1) As synthetic substrate used to examine the activity of the inhibitor for inhibiting substrate decomposition with the enzyme, there were used PS-994 (H-D-Lys(Tos)-Phe-Lys-CHA.2HCl, manufactured by Nitto Boseki Co., Ltd.) for plasmin, PS-915 (H-D-Phe-Pro-Arg-CHA.2HCl, manufactured by Nitto Boseki Co., Ltd.) for thrombin and trypsin, PS-2000 (Z-D-Lys(HCO)-Gly-Arg-CHA.HCl, manufactured by Nitto Boseki Co., Ltd.) for factor Xa, S-2302 (H-D-Pro-Phe-Arg-pNA, manufactured by Kabi Co.) for kallikrein, and MUK-34: [drawing 5] for urokinase.
(§2) As plasmin, thrombin, trypsin, factor Xa, kallikrein and urokinase, there were used 0.3 CU/ml of Sankyo Color Test α2 -PI Assay Kit Standard, 1.2 NIH U/ml of Sankyo Color Test ATIII Assay Kit, 2 μg/ml of Code 3703 manufactured by Worsingstone Co., 0.25 U/ml of human factor Xa manufactured by Boehringer Mannheim, 0.12 U/ml of human plasma kallikrein manufactured by Kabi Co., and 1000 U/ml of Mochida Pharmaceutical Urokinase 60,000 (60,000 U/vial), respectively. In the case of CHA type substrate, a color-forming termination solution for Sankyo Color Test Kit was used. Enzyme reactions were carried out at 37° C.
Assay For Inhibitory Activity Against Trypsin
After 0.1 ml of an aqueous solution of the inhibitor was added to 0.5 ml of buffer (150 mM sodium chloride aqueous solution containing 150 mM Tris, pH 8.0) and the mixture was heated for 5 minutes, 0.1 ml of trypsin solution was added thereto. The mixture was reacted for 5 minutes. Furthermore, 0.1 ml of PS-915 solution (10 mM) was added thereto. The mixture was again reacted for 5 minutes. Then, 2 ml of the color-forming termination solution [containing 2.5 mg/ml of soybean trypsin inhibitor (manufactured by Sigma Co., No. T-9003)] was added to the reaction mixture. Then the mixture was allowed to stand for 10 minutes and absorbance was measured at 700 nm. IC50 was determined by the method described above.

plasmin = target: T2, plasmin (Homo sapiens, UniProt P00747); experiment: Assay for inhibitory activity against plasmin (synthetic substrate PS-994); settings: for pIC50: PS-994, pH 7.8, 37° C.
T2 construct: purchased Sankyo (Sankyo Color Test α2 -PI Assay Kit Standard)
T2 sequence (P00747 581-810 limits assumed, species assumed): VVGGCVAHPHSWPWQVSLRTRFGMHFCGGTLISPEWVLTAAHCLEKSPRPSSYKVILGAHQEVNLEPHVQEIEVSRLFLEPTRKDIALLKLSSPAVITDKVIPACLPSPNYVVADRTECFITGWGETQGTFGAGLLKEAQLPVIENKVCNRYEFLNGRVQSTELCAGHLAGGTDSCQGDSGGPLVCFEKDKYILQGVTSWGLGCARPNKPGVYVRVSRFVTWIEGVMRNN
T2 sequence (P00747 97-580 partner limits assumed, species assumed): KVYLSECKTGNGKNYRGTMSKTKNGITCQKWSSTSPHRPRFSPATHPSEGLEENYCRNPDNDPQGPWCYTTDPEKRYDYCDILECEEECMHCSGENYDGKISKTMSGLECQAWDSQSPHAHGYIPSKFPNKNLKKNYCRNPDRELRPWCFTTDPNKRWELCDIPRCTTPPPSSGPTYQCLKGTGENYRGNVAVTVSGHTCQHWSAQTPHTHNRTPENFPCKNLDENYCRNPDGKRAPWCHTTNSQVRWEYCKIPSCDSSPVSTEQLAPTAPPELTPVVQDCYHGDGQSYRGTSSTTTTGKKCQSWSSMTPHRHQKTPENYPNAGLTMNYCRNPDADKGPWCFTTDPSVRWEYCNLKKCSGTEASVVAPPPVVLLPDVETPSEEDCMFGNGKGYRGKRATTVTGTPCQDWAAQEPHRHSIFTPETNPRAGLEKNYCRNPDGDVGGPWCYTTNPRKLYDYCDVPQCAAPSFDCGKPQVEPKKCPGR
From the text: as §1, §2
Assay For Inhibitory Activity Against Plasmin
Each aqueous solution (0.1 ml) of the inhibitor having various concentrations was added to 0.4 ml of buffer (150 mM sodium chloride aqueous solution containing 100 mM Tris, pH 7.8) and the mixture was heated for 5 minutes. After 0.2 ml of the plasmin solution was added thereto, the mixture was reacted for 5 minutes. After 0.1 ml of PS-994 solution (10 mM) was added thereto, and the mixture was again reacted for 5 minutes. Then, 2.0 ml of the color-forming termination solution was added to the reaction mixture. Then the mixture was allowed to stand for 10 minutes and absorbance was measured at 700 nm. A concentration of the inhibitor in the reaction system showing 1/2 absorbance that of the case where no inhibitor was present was determined to be IC50.

human factor Xa = target: T3, human factor Xa (Homo sapiens, UniProt P00742); experiment: Assay for inhibitory activity against factor Xa (synthetic substrate PS-2000); settings: for pIC50: PS-2000, pH 8.5, 37° C.
T3 construct: purchased Boehringer Mannheim
T3 sequence (P00742 235-488 limits assumed): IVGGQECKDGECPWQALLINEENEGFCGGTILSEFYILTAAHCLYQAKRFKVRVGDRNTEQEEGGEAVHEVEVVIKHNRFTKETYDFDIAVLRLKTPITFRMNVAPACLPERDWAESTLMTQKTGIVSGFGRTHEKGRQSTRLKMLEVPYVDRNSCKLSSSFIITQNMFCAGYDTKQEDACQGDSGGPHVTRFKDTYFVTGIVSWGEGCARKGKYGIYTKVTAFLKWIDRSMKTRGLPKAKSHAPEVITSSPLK
T3 sequence (P00742 41-179 partner limits assumed): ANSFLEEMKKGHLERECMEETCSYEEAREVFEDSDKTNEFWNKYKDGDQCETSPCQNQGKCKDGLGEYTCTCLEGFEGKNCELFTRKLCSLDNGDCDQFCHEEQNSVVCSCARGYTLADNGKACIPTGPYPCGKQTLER
From the text: as §1, §2
Assay For Inhibitory Activity Against Factor Xa
To 0.3 ml of buffer (150 mM sodium chloride aqueous solution containing 50 mM Tris, pH 8.5) was added 0.1 ml each of an aqueous solution of the inhibitor having various concentrations. The mixture was heated for 5 minutes. Then, 0.1 ml of factor Xa solution (150 mM solution chloride aqueous solution containing 50 mM Tris and 20 mM calcium chloride, pH 8.5) was added thereto, and the mixture was reacted for 5 minutes. Furthermore,5% polyvinylpyrrolidone solution (0.1 ml) containing 10 mM PS-2000 was added thereto, and the mixture was again reacted for 5 minutes. Then, 2 ml of the color-forming termination solution was added to the reaction mixture. Then the mixture was allowed to stand for 10 minutes and absorbance was measured at 700 nm. IC50 was determined by the method described above.

thrombin = target: T4, thrombin (Homo sapiens, UniProt P00734); experiment: Assay for inhibitory activity against thrombin (synthetic substrate PS-915); settings: for pIC50: PS-915, pH 8.5, 37° C.
T4 construct: purchased Sankyo (Sankyo Color Test ATIII Assay Kit)
From the text: as §1, §2
Assay For Inhibitory Activity Against Thrombin
Each aqueous solution (0.1 ml) of the inhibitor having various concentrations was added to 0.4 ml of buffer (150 mM sodium chloride aqueous solution containing 150 mM Tris, pH 8.5) and the mixture was heated for 5 minutes. Then, 0.2 ml of the thrombin solution was added thereto and the mixture was reacted for 5 minutes. After 0.1 ml of PS-915 solution (10 mM) was added thereto, the mixture was again reacted for 5 minutes. Then, 2 ml of the color-forming termination solution was added to the reaction mixture. Then the mixture was allowed to stand for 10 minutes and absorbance was measured at 700 nm. IC50 was determined by the method described above.

human plasma kallikrein = target: T5, human plasma kallikrein (Homo sapiens, UniProt P03952); experiment: Assay for inhibitory activity against kallikrein (synthetic substrate S-2302); settings: for pIC50: S-2302, pH 8.0, 37° C.
T5 construct: purchased Kabi Co
T5 sequence (P03952 20-638): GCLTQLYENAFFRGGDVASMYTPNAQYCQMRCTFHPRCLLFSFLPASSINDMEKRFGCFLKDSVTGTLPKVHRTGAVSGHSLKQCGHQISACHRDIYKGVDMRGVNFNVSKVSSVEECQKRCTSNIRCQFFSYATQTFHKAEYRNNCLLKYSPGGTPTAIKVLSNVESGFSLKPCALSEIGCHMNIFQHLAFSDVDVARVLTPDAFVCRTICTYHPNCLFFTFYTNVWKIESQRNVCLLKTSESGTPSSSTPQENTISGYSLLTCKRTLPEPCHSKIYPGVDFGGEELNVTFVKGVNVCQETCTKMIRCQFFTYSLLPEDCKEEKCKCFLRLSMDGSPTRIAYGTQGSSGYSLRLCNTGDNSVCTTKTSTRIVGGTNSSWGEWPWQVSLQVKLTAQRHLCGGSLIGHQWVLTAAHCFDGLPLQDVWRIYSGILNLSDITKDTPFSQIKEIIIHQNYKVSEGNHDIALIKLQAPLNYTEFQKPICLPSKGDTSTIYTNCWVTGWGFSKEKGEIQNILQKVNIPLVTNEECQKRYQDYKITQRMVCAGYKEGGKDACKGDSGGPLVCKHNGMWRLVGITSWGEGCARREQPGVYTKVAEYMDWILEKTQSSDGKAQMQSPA
From the text: as §1, §2
Assay For Inhibitory Activity Against Kallikrein
To 0.4 ml of buffer (150 mN sodium chloride aqueous solution containing 50 mM Tris, pH 8.0) was added 0.1 ml each of aqueous solutions of the inhibitor having various concentrations and the mixture was heated for 5 minutes. Then, 0.1 ml of kallikrein solution (containing 0.5% bovine serum albumin, No. A-8022 of Sigma Co.) was added thereto, and the mixture was reacted for 5 minutes. Furthermore, 10 mM S-2302 aqueous solution (0.1 ml) was added thereto, and the mixture was again reacted for 5 minutes. Then, 5 ml of 20% acetic acid aqueous solution was added to terminate the reaction. Absorbance was measured at 405 nm and IC50 was determined by the method described above.

urokinase = target: T6, urokinase (Homo sapiens, UniProt P00749); experiment: Assay for inhibitory activity against urokinase (synthetic substrate MUK-34); settings: for pIC50: MUK-34, pH 8.20, 37° C.
T6 construct: purchased Mochida Pharmaceutical Urokinase 60,000 (60,000 U/vial)
From the text: as §1, §2
Assay For Inhibitory Activity Against Urokinase
An aqueous solution (0.1 ml) of […] the inhibitor was added to 0.3 ml of buffer (150 mM sodium chloride aqueous solution containing 50 mM Tris, pH 8.20) and the mixture was heated for 5 minutes. Thereafter 0.1 ml of urokinase solution (containing 50 mM Tris, 150 mM sodium chloride aqueous solution and 0.1% BSA, pH 8.20) was added thereto, and the mixture was reacted for 5 minutes. Furthermore, 10 mM MUK-34 aqueous solution (0.1 ml) was added thereto, and the mixture was reacted for 5 minutes. Then 10% acetic acid aqueous solution (2.0 ml) was added to the mixture to terminate the reaction. Absorbance was measured at 405 nm and IC50 was determined by the method described above.

[1] = Table 3, compounds of the invention, read-out: Trypsin
[2] = Table 3, compounds of the invention, read-out: Plasmin
[3] = Table 3, compounds of the invention, read-out: Factor
[4] = Table 3, compounds of the invention, read-out: Thrombin
[5] = Table 3, compounds of the invention, read-out: Kallikrein
[6] = Table 3, compounds of the invention, read-out: Urokinase
[7] = Table 2, known compounds, read-out: IC50 Urokinase
[8] = Table 2, known compounds, read-out: IC50 Trypsin
[9] = Table 2, known compounds, read-out: IC50 Plasmin
[10] = Table 2, known compounds, read-out: IC50 Factor Xa
[11] = Table 2, known compounds, read-out: IC50 Thrombin
[12] = Table 2, known compounds, read-out: IC50 Kallikrein

N-ε-(2-naphthalenesulfonyl)-D-lysyl-L-prolyl-L-argininal sulfate [Example 3]
pIC50 (trypsin; [1]): 7.49 | pIC50 (plasmin; [2]): 6.26 | pIC50 (human factor Xa; [3]): 5.46 | pIC50 (thrombin; [4]): 6.70 | pIC50 (human plasma kallikrein; [5]): 7.40

N-ε-acetyl-D-lysyl-L-prolyl-L-argininal sulfate [Example 10]
pIC50 (urokinase; [6]): 4.40 | pIC50 (trypsin; [1]): 7.22 | pIC50 (plasmin; [2]): 5.37 | pIC50 (human factor Xa; [3]): 5.39 | pIC50 (thrombin; [4]): 6.48 | pIC50 (human plasma kallikrein; [5]): 5.40

N=C(N)NCCC[C@@H](C=O)NC(=O)[C@@H]1CCCN1C(=O)[C@H](N)CCCCNC(=O)Cc1ccccc1 [Example 9, N-ε-phenylacetyl-D-lysyl-L-prolyl-L-argininal sulfate] (H-[dK](PhAc)-Pro-Arg-aldehyde)
pIC50 (urokinase; [6]): 4.08 | pIC50 (trypsin; [1]): 7.17 | pIC50 (plasmin; [2]): 5.59 | pIC50 (human factor Xa; [3]): 4.82 | pIC50 (thrombin; [4]): 6.03 | pIC50 (human plasma kallikrein; [5]): 6.70

N-ε-(p-toluoyl)-D-lysyl-L-prolyl-L-argininal sulfate [Example 7]
pIC50 (urokinase; [6]): 5.10 | pIC50 (trypsin; [1]): 7.96 | pIC50 (plasmin; [2]): 6.00 | pIC50 (human factor Xa; [3]): 5.32 | pIC50 (thrombin; [4]): 6.46 | pIC50 (human plasma kallikrein; [5]): 6.70

N-α-N-ε-di(p-tosyl)-D-lysyl-L-prolyl-L-argininal1/2 sulfate [Example 17]
pIC50 (urokinase; [6]): 5.46 | pIC50 (trypsin; [1]): 7.46 | pIC50 (plasmin; [2]): 7.22 | pIC50 (human factor Xa; [3]): 6.34 | pIC50 (thrombin; [4]): 6.20 | pIC50 (human plasma kallikrein; [5]): 7.42

N-α-isobutoxycarbonyl-N-ε-(p-tosyl)-D-lysyl-L-prolyl-L-argininal 1/2 sulfate [Example 15]
pIC50 (urokinase; [6]): 5.85 | pIC50 (trypsin; [1]): 7.66 | pIC50 (plasmin; [2]): 7.23 | pIC50 (human factor Xa; [3]): 6.46 | pIC50 (thrombin; [4]): 6.36 | pIC50 (human plasma kallikrein; [5]): 7.43

CCOC(=O)c1ccc(OC(=O)CCCCCN=C(N)N)cc1 [Example A3, reference compound]
pIC50 (urokinase; [7]): 5.96 | pIC50 (trypsin; [8]): 5.72 | pIC50 (plasmin; [9]): 4.40 | pIC50 (human factor Xa; [10]): 4.89 | pIC50 (thrombin; [11]): 4.49 | pIC50 (human plasma kallikrein; [12]): 5.35

N-α-(2-naphthalenesulfonyl)-N-ε-(p-tosyl)-D-lysyl-L-prolyl-L-argininal 1/2 sulfate [Example 20]
pIC50 (urokinase; [6]): 5.18 | pIC50 (trypsin; [1]): 7.37 | pIC50 (plasmin; [2]): 6.60 | pIC50 (human factor Xa; [3]): 5.96 | pIC50 (thrombin; [4]): 5.92 | pIC50 (human plasma kallikrein; [5]): 6.77

N=C(N)NCCC[C@@H](C=O)NC(=O)[C@@H]1CCCN1C(=O)[C@H](N)Cc1ccccc1 [Example A2, D-phenylalanyl-L-prolyl-L-argininal, reference compound]
inhibitory activity against urokinase (in words) (urokinase): do not strongly inhibit | pIC50 (urokinase; [7]): 4.38 | inhibitory activity against trypsin (in words) (trypsin): inhibit | pIC50 (trypsin; [8]): 7.16 | inhibitory activity against plasmin (in words) (plasmin): do not strongly inhibit | pIC50 (plasmin; [9]): 4.72 | inhibitory activity against factor Xa (in words) (human factor Xa): do not strongly inhibit | pIC50 (human factor Xa; [10]): 4.60 | inhibitory activity against thrombin (in words) (thrombin): inhibit | pIC50 (thrombin; [11]): 7.60 | inhibitory activity against kallikrein (in words) (human plasma kallikrein): do not strongly inhibit | pIC50 (human plasma kallikrein; [12]): 4.51

CC(=O)N[C@@H](CC(C)C)C(=O)N[C@@H](CC(C)C)C(=O)N[C@H](C=O)CCCNC(=N)N [Example A1, acetyl-L-leucyl-L-leucyl-argininal, reference compound]
inhibitory activity against urokinase (in words) (urokinase): do not strongly inhibit | inhibitory activity against trypsin (in words) (trypsin): inhibit | inhibitory activity against plasmin (in words) (plasmin): do not strongly inhibit | inhibitory activity against factor Xa (in words) (human factor Xa): do not strongly inhibit | inhibitory activity against kallikrein (in words) (human plasma kallikrein): do not strongly inhibit

N-ε-Ethanesulfonyl-D-lysyl-L-prolyl-L-argininal sulfate [Example 5]
pIC50 (urokinase; [6]): 4.09 | pIC50 (trypsin; [1]): 7.19 | pIC50 (plasmin; [2]): 5.20 | pIC50 (human factor Xa; [3]): 4.74 | pIC50 (thrombin; [4]): 5.89 | pIC50 (human plasma kallikrein; [5]): 5.27

Cc1ccc(S(=O)(=O)NCCCC[C@@H](N)C(=O)N2CCC[C@H]2C(=O)N[C@H](C=O)CCCNC(=N)N)cc1 [Example 1, N-ε-(p-tosyl)-D-lysyl-L-prolyl-L-argininal sulfate] (H-[dK](Tos)-Pro-Arg-aldehyde)
pIC50 (urokinase; [6]): 4.46 | pIC50 (trypsin; [1]): 7.32 | pIC50 (plasmin; [2]): 5.82 | pIC50 (human factor Xa; [3]): 5.19 | pIC50 (thrombin; [4]): 6.52 | pIC50 (human plasma kallikrein; [5]): 7.54
